Experimental data published in the Kinase Knowledgebase extract (Sharma et al. 2016).

target: CDK2 (human) (UniProt P24941); test: Enzyme Assay

Row | SMILES | IC50 [nM]
1 | COC(=O)[C@H](Cc1ccc(O)cc1)NC(=O)c1cc(C(=O)O)c2cc(-c3cccc(C(C)C)c3)ccc2n1 | ≤ 1000
2 | O=C(N[C@@H](Cc1ccc(O)cc1)c1ncc[nH]1)c1cc(C(=O)O)c2cc(-c3cccc(C(F)(F)F)c3)ccc2n1 | ≤ 1000
3 | COC[C@H](Cc1ccc(O)cc1)NC(=O)c1cc(-c2nnn[nH]2)c2cc(-c3cccc(C(F)(F)F)c3)ccc2n1 | ≤ 1000
4 | COC(=O)[C@H](Cc1ccc(O)cc1)NC(=O)c1cc(C(=O)O)c2cc(CCC(C)(C)C)ccc2n1 | ≤ 1000
5 | CCCC(Cc1ccc(O)cc1)NC(=O)c1cc(C(=O)O)c2cc(-c3cccc(C(F)(F)F)c3)ccc2n1 (stereo not given) | ≤ 1000
6 | COC(=O)[C@H](Cc1ccc(O)cc1)NC(=O)c1cc(C(=O)O)c2cc(-c3ccc(OC)cc3)ccc2n1 | ≤ 1000
7 | CCCCCC#Cc1ccc2nc(C(=O)N[C@H](COC)Cc3ccc(O)cc3)cc(C(=O)O)c2c1 | ≤ 1000
8 | COC(=O)[C@H](Cc1ccc(O)cc1)NC(=O)c1cc(C(=O)O)c2cc(-c3ccc(Oc4ccccc4)cc3)ccc2n1 | ≤ 1000
9 | COC(=O)[C@H](Cc1ccc(O)cc1)NC(=O)c1cc(C(=O)O)c2cc(C=Cc3ccc(Cl)cc3)ccc2n1 | ≤ 1000
10 | COC(=O)[C@H](Cc1ccc(O)cc1)NC(=O)c1cc(C(=O)O)c2cc(CCc3ccc(Cl)cc3)ccc2n1 | ≤ 1000
11 | COC(=O)[C@H](Cc1ccc(O)cc1)NC(=O)c1cc(C(=O)O)c2cc(C=Cc3ccc(F)cc3)ccc2n1 | ≤ 1000
12 | COC[C@H](Cc1ccc(O)cc1)NC(=O)c1cc(C(=O)O)c2cc(-c3cccc(Cn4ccccc4=O)c3)ccc2n1 | ≤ 1000
13 | COC(=O)[C@H](Cc1ccc(O)cc1)NC(=O)c1cc(C(=O)O)c2cc(-c3cc4ccccc4o3)ccc2n1 | ≤ 1000
14 | O=C(N[C@@H](Cc1ccc(O)cc1)C(=O)NC1CC1)c1cc(C(=O)O)c2cc(C=Cc3ccc(Cl)cc3)ccc2n1 | ≤ 1000
15 | COC(=O)[C@H](Cc1ccc(O)cc1)NC(=O)c1cc(C(=O)O)c2cc(-c3cccc([N+](=O)[O-])c3)ccc2n1 | ≤ 1000
16 | COC[C@H](Cc1ccc(O)cc1)NC(=O)c1cc(C(=O)O)c2cc(C=Cc3ccc(Cl)cc3)ccc2n1 | ≤ 1000
17 | COC(=O)[C@H](Cc1ccc(O)cc1)NC(=O)c1cc(C(=O)O)c2cc(-c3cccc(C)c3)ccc2n1 | ≤ 1000
18 | COC(=O)[C@H](Cc1ccc(O)cc1)NC(=O)c1cc(C(=O)O)c2cc(-c3ccc(F)c(C)c3)ccc2n1 | ≤ 1000
19 | COC(=O)[C@H](Cc1ccc(O)cc1)NC(=O)c1cc(C(=O)O)c2cc(-c3cccc(C#N)c3)ccc2n1 | ≤ 1000
20 | COC[C@H](Cc1ccc(O)cc1)NC(=O)c1cc(NS(=O)(=O)C(C)(C)C)c2cc(-c3cccc(COc4ccccn4)c3)ccc2n1 | ≤ 1000
21 | COC(=O)[C@H](Cc1ccc(O)cc1)NC(=O)c1cc(C(=O)O)c2cc(CCc3ccc(F)cc3)ccc2n1 | ≤ 1000
22 | CCCCCCc1ccc2nc(C(=O)N[C@@H](Cc3ccc(O)cc3)C(=O)OC)cc(C(=O)O)c2c1 | ≤ 1000
23 | COC(=O)[C@H](Cc1ccc(O)cc1)NC(=O)c1cc(C(=O)O)c2cc(-c3cc4ccccc4s3)ccc2n1 | ≤ 1000
24 | COC(=O)[C@H](Cc1ccc(O)cc1)NC(=O)c1cc(C(=O)O)c2cc(-c3cccs3)ccc2n1 | ≤ 1000
25 | COC(=O)[C@H](Cc1ccc(O)cc1)NC(=O)c1cc(C(=O)O)c2cc(-c3ccccc3)ccc2n1 | ≤ 1000

Row | SMILES | IC50 [nM]
26 | COC(=O)[C@H](Cc1ccc(O)cc1)NC(=O)c1cc(C(=O)O)c2cc(-c3ccc(Cl)c(Cl)c3)ccc2n1 | ≤ 1000
27 | CNC(=O)[C@H](Cc1ccc(O)cc1)NC(=O)c1cc(C(=O)O)c2cc(C=Cc3ccc(Cl)cc3)ccc2n1 | ≤ 1000
28 | COC(=O)[C@H](Cc1ccc(O)cc1)NC(=O)c1cc(C(=O)O)c2cc(-c3cc(Cl)cc(Cl)c3)ccc2n1 | ≤ 1000
29 | COC[C@H](Cc1ccc(O)cc1)NC(=O)c1cc(C(=O)O)c2cc(OCc3ccc(C(F)(F)F)cc3)ccc2n1 | ≤ 1000
30 | COC(=O)[C@H](Cc1ccc(O)cc1)NC(=O)c1cc(C(=O)O)c2cc(CCc3ccc(C(F)(F)F)cc3)ccc2n1 | ≤ 1000
31 | COC(=O)[C@H](Cc1ccc(O)cc1)NC(=O)c1cc(C(=O)O)c2cc(C=CC(C)(C)C)ccc2n1 | ≤ 1000
32 | COC[C@H](Cc1ccc(O)cc1)NC(=O)c1cc(C(=O)O)c2cc(-c3cccc(C(F)(F)F)c3)ccc2n1 | ≤ 1000
33 | COC(=O)[C@H](Cc1ccc(O)cc1)NC(=O)c1cc(C(=O)O)c2cc(-c3ccc(Cl)cc3)ccc2n1 | ≤ 1000
34 | COC[C@H](Cc1ccc(O)cc1)NC(=O)c2cc(C(=O)O)c3cc(ccc3n2)c4cccc(CN5=CC(=CC=C5)O)c4 | ≤ 1000
35 | CON=C[C@H](Cc1ccc(O)cc1)NC(=O)c1cc(C(=O)O)c2cc(-c3cccc(C(F)(F)F)c3)ccc2n1 | ≤ 1000
36 | COC(=O)[C@H](Cc1ccc(O)cc1)NC(=O)c1cc(C(=O)O)c2cc(-c3ccc(F)c(Cl)c3)ccc2n1 | ≤ 1000
37 | COC(=O)[C@H](Cc1ccc(O)cc1)NC(=O)c1cc(NS(C)(=O)=O)c2cc(-c3cccc(C(F)(F)F)c3)ccc2n1 | ≤ 1000
38 | O=C(NC(Cc1ccc(O)cc1)C1CCCCC1)c1cc(C(=O)O)c2cc(-c3cccc(C(F)(F)F)c3)ccc2n1 (stereo not given) | ≤ 1000
39 | COC(=O)[C@H](Cc1ccc(O)cc1)NC(=O)c1cc(C(=O)O)c2cc(-c3cccc(-c4ccccc4)c3)ccc2n1 | ≤ 1000
40 | COC(=O)[C@H](Cc1ccc(O)cc1)NC(=O)c1cc(C(=O)O)c2cc(-c3cc(C)cc(C)c3)ccc2n1 | ≤ 1000
41 | COC(=O)[C@H](Cc1ccc(O)cc1)NC(=O)c1cc(C(=O)O)c2cc(-c3ccc(C)s3)ccc2n1 | ≤ 1000
42 | CN(C)C(=O)[C@H](Cc1ccc(O)cc1)NC(=O)c1cc(C(=O)O)c2cc(C=Cc3ccc(Cl)cc3)ccc2n1 | ≤ 1000
43 | CCCCCCCc1ccc2nc(C(=O)N[C@H](COC)Cc3ccc(O)cc3)cc(C(=O)O)c2c1 | ≤ 1000
44 | COC(=O)[C@H](Cc1ccc(O)cc1)NC(=O)c1cc(C(=O)O)c2cc(CCc3ccccc3)ccc2n1 | ≤ 1000
45 | COC[C@H](Cc1ccc(O)cc1)NC(=O)c1cc(S(=O)(=O)O)c2cc(-c3cccc(C(F)(F)F)c3)ccc2n1 | ≤ 1000
46 | COC(=O)[C@H](Cc1ccc(O)cc1)NC(=O)c1cc(C(=O)O)c2cc(-c3ccc(C)c([N+](=O)[O-])c3)ccc2n1 | ≤ 1000
47 | COC(=O)[C@H](Cc1ccc(O)cc1)NC(=O)c1cc(C(=O)O)c2cc(-c3ccc(OC(F)(F)F)cc3)ccc2n1 | ≤ 1000
48 | COC(=O)[C@H](Cc1ccc(O)cc1)NC(=O)c1cc(C(=O)O)c2cc(-c3ccc(C(C)C)cc3)ccc2n1 | ≤ 1000
49 | CCCCCC=Cc1ccc2nc(C(=O)N[C@H](COC)Cc3ccc(O)cc3)cc(C(=O)O)c2c1 | ≤ 1000
50 | Cc1cnc([C@H](Cc2ccc(O)cc2)NCc2cc(C(=O)O)c3cc(-c4cccc(C(F)(F)F)c4)ccc3n2)o1 | ≤ 1000
